Data: a melting point compilation (Tetko et al.)

Settings: a range is the spread between reports

Row | SMILES | melting point
1 | CCCCCCCCCCCCS | -8 to -7 °C
2 | CC[C@H]1CC[C@H]2[C@@H]3CC[C@@H]4CCCC[C@]4(C)[C@H]3CC[C@]12C | 83.5 to 84.5 °C
3 | CC(C)c1ccc2ccccc2c1 | 14 to 14.5 °C
4 | Nc1ccc([N+](=O)[O-])cc1C(=O)c1ccccc1 | 163 to 167 °C
5 | O=C(CCC(=O)OCc1ccccc1)OCc1ccccc1 | 45 to 49.5 °C
6 | CCCC(C)C1(CC)C(=O)NC(=O)NC1=O (stereo not given) | 130 °C
7 | O=Cc1ccccc1C=O | 56 to 56.5 °C
8 | O=C(O)CCCCCC(=O)O | 104 to 106 °C
9 | CCOC(=O)C(=Cc1ccccc1)C(=O)OCC | 30 to 32 °C
10 | CC(C)C=O | -65.9 to -65 °C
11 | OCC(F)(F)F | -44 to -43.5 °C
12 | S=C=Nc1ccc(Br)cc1 | 58 to 60.5 °C
13 | O=C(O)c1c(Cl)cccc1Cl | 143 to 144 °C
14 | COc1cc(CNC(=O)CCCCC=CC(C)C)ccc1O | 65 to 66 °C
15 | ClC(Cl)Br | -57 to -55 °C
16 | CCOC(=O)c1ccccc1[N+](=O)[O-] | 28 to 30 °C
17 | CN[C@@H](C)[C@H](O)c1ccccc1 | 34 to 36 °C
18 | CCC1=CCCCC1 | -110 °C
19 | N#C/C=C/C#N | 96.8 to 97 °C
20 | NC(=S)Nc1ccccc1 | 149 to 154 °C
21 | Brc1cncc2ccccc12 | 41 to 41.5 °C
22 | O=C1C=CCO1 | 4 to 4.5 °C
23 | C=Cc1ccccc1C | -69 to -68.5 °C
24 | C=Cc1cccc(C)c1 | -86.3 to -82 °C
25 | CC(=O)C(C)C | -93.1 to -92 °C

Row | SMILES | melting point
26 | COc1ccc(C2CC(=O)c3c(O)cc(O)cc3O2)cc1O (stereo not given) | 228 to 230 °C
27 | COC1=C(OC)C(=O)C(C)=CC1=O | 58.5 to 59.5 °C
28 | O=C=Nc1ccc(Cc2ccc(N=C=O)cc2)cc1 | 37.2 to 38 °C
29 | O=C1CCC(c2ccccc2)CC1 | 79.5 to 80 °C
30 | COc1ccc(C(=O)O)cc1O | 252 to 253 °C
31 | O=[N+]([O-])c1ccc(F)c([N+](=O)[O-])c1 | 25.8 to 27 °C
32 | Cc1ccc(C(=O)c2ccccc2)cc1C | 46 to 47.5 °C
33 | COc1ccc2c(c1)CCCC2=O | 78 to 79 °C
34 | Nc1ccc(S(=O)(=O)Nc2nccs2)cc1 | 200 to 202 °C
35 | O=C(O)CCC(=O)c1ccc(-c2ccccc2)cc1 | 186 °C
36 | O=C1OC(=O)c2ccccc21 | 131 to 132 °C
37 | C1=CCCCC1 | -104 °C
38 | O=C(c1ccccc1)c1cccc(Cl)c1 | 82 to 83 °C
39 | c1ccc2ocnc2c1 | 30 to 31 °C
40 | CC(=O)Oc1ccc(-c2ccccc2)cc1 | 88 to 89 °C
41 | O=C(O)c1ccco1 | 130 to 134 °C
42 | Cc1cccc([N+](=O)[O-])c1 | 15.5 to 16 °C
43 | ClC(Cl)(Cl)Br | -6 to -5.7 °C
44 | Cc1ccc(N=C=S)cc1 | 25 to 25.5 °C
45 | c1ccc(Nc2cccc3ccccc23)cc1 | 61 to 62 °C
46 | O=C(O)CCCC(=O)O | 96.5 to 97.8 °C
47 | CCCCCOC(=O)CCC | -73.2 to -73 °C
48 | CC(CO)(CO)[N+](=O)[O-] | 150 °C
49 | N#CCc1cccc2ccccc12 | 32.5 to 34 °C
50 | O=C1Nc2ccccc2C1=O | 200 to 203 °C

Row | SMILES | melting point
51 | O=[N+]([O-])c1cc(F)ccc1F | -12 to -11.7 °C
52 | CC(C)(C)I | -38.2 to -38 °C
53 | Oc1c(Cl)ccc(Cl)c1Cl | 56 to 58 °C
54 | O=[N+]([O-])c1ccc(O)c(O)c1 | 175 to 176 °C
55 | CC(C)c1cc(C(C)C)c(C(C)C)cc1C(C)C | 118 to 119 °C
56 | CCC(C)(CC)CC | -91 to -90.9 °C
57 | CC1OC1C (stereo not given) | -85 to -80 °C
58 | COc1ccc(CC(=O)O)cc1OC | 97 to 98 °C
59 | CCCCCCN | -23 to -19 °C
60 | c1ccc(-n2cccc2)cc1 | 59 to 62 °C
61 | CCCOc1ccccc1 | -28 to -27 °C
62 | Cc1ccc(N)cc1C | 50 to 51 °C
63 | OCc1ccccc1 | -15.2 to -15 °C
64 | COc1ccccc1 | -37.5 to -37 °C
65 | C=Cc1ccc([N+](=O)[O-])cc1 | 27 to 29 °C
66 | CCCN(CCC)CCC | -94 to -93 °C
67 | CC1=CC(=O)CC(C)(C)C1 | -8.1 to -8 °C
68 | CC(S)C(=O)O (stereo not given) | 11 to 12 °C
69 | Nc1ccccc1Nc1ccccc1 | 79 to 79.5 °C
70 | O=C1OC(=O)c2cc(Cl)c(Cl)cc21 | 186 to 188 °C
71 | O=C(O)c1ccccc1C(F)(F)F | 109 to 111 °C
72 | CC1CC=CC1 | -161 °C
73 | O=C(c1ccccc1)c1ccc([N+](=O)[O-])cc1 | 137 to 138 °C
74 | N#Cc1ccccc1N | 47 to 51 °C
75 | COc1ccc(N)cc1 | 57 to 59 °C

Row | SMILES | melting point
76 | c1ccc2c(c1)ccc1cccnc12 | 50 to 52 °C
77 | BrCC(Br)Br | -29.3 to -29 °C
78 | O=C(O)CSc1ccccc1 | 64 to 65 °C
79 | CCCCCCCCCCCCCCCCCCCC(=O)O | 75 to 75.4 °C
80 | SCCS | -41.2 to -41 °C
81 | CC(=O)CCC(=O)O | 29 to 33 °C
82 | O=C1C=CC(=O)N1 | 92 to 94 °C
83 | C#CC(C)C | -90 to -89.7 °C
84 | Clc1cccs1 | -72 to -71.9 °C
85 | O=C1C=CC(=O)O1 | 52.8 to 54 °C
86 | O=Cc1cccc([N+](=O)[O-])c1 | 58 to 59 °C
87 | c1ccc(P(c2ccccc2)c2ccccc2)cc1 | 80 to 80.5 °C
88 | CCOC(=O)CCCCCCCCC(=O)OCC | 2 to 5 °C
89 | OCc1ccccc1I | 91 to 92 °C
90 | c1ccc(-c2nc3ccccc3s2)cc1 | 114 to 115 °C
91 | Oc1cc(O)cc(O)c1 | 218 °C
92 | CC1(C(=O)O)CCCCC1 | 37.5 to 38 °C
93 | Cc1ccccc1CCl | -2 to 2 °C
94 | N#Cc1c(F)c(F)c(F)c(F)c1F | 2 to 2.4 °C
95 | O=C(Cl)c1cccc(C(=O)Cl)c1 | 43.5 to 44 °C
96 | CC(C)(C)S | -0.5 to 1 °C
97 | O=[N+]([O-])c1cc(Cl)ccc1Cl | 55 to 56 °C
98 | CCCCCCCCCCCCBr | -10 to -9.5 °C
99 | CCCCCCCCCCCl | -31.3 to -31 °C
100 | O=C(O)CCCCCCCCCCC(=O)O | 128 to 129 °C

Row | SMILES | melting point
101 | O=Cc1c[nH]c2ccccc12 | 196 to 197 °C
102 | O=[N+]([O-])c1cc(C(F)(F)F)cc([N+](=O)[O-])c1Cl | 56 to 57 °C
103 | O=[N+]([O-])c1cc(Br)ccc1Br | 82 to 85.5 °C
104 | ClCC(CCl)(CCl)CCl | 95 to 97 °C
105 | O=P(O)(O)CCCl | 70 to 74.5 °C
106 | Oc1ccc(Cl)cc1Cc1ccccc1 | 48 to 48.5 °C
107 | CCCCN | -50 to -49 °C
108 | O=C(O)CSCc1ccccc1 | 61 to 62 °C
109 | CCN1CCOCC1 | -64 to -63 °C
110 | CC(C)c1ccccc1O | 15 to 16 °C
111 | Nc1ccc(Cl)cc1C(=O)c1ccccc1 | 96 to 99 °C
112 | O=[N+]([O-])c1ccc2c3c(cccc13)CC2 | 103 to 104 °C
113 | CCCCCCBr | -85 to -84.7 °C
114 | Brc1ccccc1I | 9.5 to 10 °C
115 | C=CS(=O)(=O)c1ccccc1 | 68 to 69 °C
116 | COCCOc1c(OC)cc(Cc2cnc(N)nc2N)cc1OC | 154 °C
117 | CC(=O)c1cc(C)ccc1O | 47 to 50 °C
118 | COc1ccc2ccccc2c1C=O | 83 to 84 °C
119 | N=C(Nc1ccccc1)Nc1ccccc1 | 149 to 150 °C
120 | N#CCc1ccccc1 | -24 to -23.8 °C
121 | OCc1ccc(Br)cc1 | 76 to 78 °C
122 | C1=Cc2cccc3cccc1c23 | 91 to 92.5 °C
123 | O=C1CCCN1 | 23 to 24 °C
124 | Cc1ccc(F)cc1[N+](=O)[O-] | 26 to 27 °C
125 | BrCBr | -53 to -52 °C

Row | SMILES | melting point
126 | O=C(c1ccc(Cl)cc1)c1ccc(Cl)cc1 | 145 to 148 °C
127 | OC(COc1ccccc1)COc1ccccc1 | 81.5 to 82 °C
128 | CC(C)CC(C)C | -123 to -119 °C
129 | Cc1nnc(S)s1 | 184 to 187 °C
130 | CC(=O)CC(=O)OC(C)C | -27.3 to -27 °C
131 | CN1C(=O)CCC1=O | 66 to 71 °C
132 | CCCCCCCCCCCCCCCCCCCCCCCCCCCCC | 63.7 to 66 °C
133 | Cc1ccc(N)nc1 | 76 to 76.5 °C
134 | O=C1C=CC(=O)N1c1ccccc1 | 89 to 90.5 °C
135 | O=C(Nc1ccccc1)c1ccccc1O | 136 to 137 °C
136 | O=C(O)CCCCCCCCCCCCCCCCCCC(=O)O | 126 to 127 °C
137 | CC(=O)CCC(C)=O | -7 to -5.5 °C
138 | CCCCC(CC)COC(=O)CCCCC(=O)OCC(CC)CCCC (stereo not given) | -67.8 to -67 °C
139 | COc1cc(Cl)ccc1N | 51 to 52 °C
140 | N#CCc1cccc(Br)c1 | 27 to 28 °C
141 | CCCCC(C)CCC (stereo not given) | -113 °C
142 | c1ccc2[nH]c(-c3cscn3)nc2c1 | 300 °C
143 | C1=CC2C=CC1C2 | -20 to -19.1 °C
144 | CCc1cc(C)cc(CC)c1 | -74.1 to -74 °C
145 | CCCCCCCCCCCC(C)O (stereo not given) | 23 to 25 °C
146 | CC(=O)NO | 88 to 90.5 °C
147 | O=[N+]([O-])c1ccccc1F | -8 to -6 °C
148 | CC1=CC(=O)C=C(C)C1=O | 70 to 72.5 °C
149 | OC1c2ccccc2-c2ccccc21 | 154 to 156 °C
150 | CC1CNC(C)CN1 (stereo not given) | 114 to 118 °C

Row | SMILES | melting point
151 | CCOC(=O)c1ccc(OC)c(OC)c1 | 43.5 to 44 °C
152 | O=c1ccc2ccccc2o1 | 70 to 71 °C
153 | SCc1ccc(Cl)cc1 | 19 to 20 °C
154 | O=C(O)C=Cc1cccc(Br)c1 | 177 to 180 °C
155 | OCCCCCCCCCO | 45.8 to 47 °C
156 | CCCCCCCCCCl | -39.4 to -39 °C
157 | CCC(=O)C(CC(C)N(C)C)(c1ccccc1)c1ccccc1 (stereo not given) | 98.8 to 102 °C
158 | O=C(O)c1cc(Cl)ccc1Cl | 152 to 156 °C
159 | NC(=O)c1ccc(Cl)cc1 | 173 to 178 °C
160 | CCN(C(C)C)C(C)C | -50 to -46 °C
161 | C=Cc1ccc2ccccc2c1 | 65 to 66 °C
162 | CCCCOc1ccc(C(=O)O)cc1 | 147 to 148 °C
163 | c1ccc(C2CCCCC2)cc1 | 5 to 7.3 °C
164 | O=c1c2ccccc2oc2ccccc12 | 175 to 176 °C
165 | Cc1cccc(O)c1 | 11 to 12 °C
166 | O=Cc1ccc(C=O)cc1 | 115 to 117 °C
167 | CCCCP(CCCC)CCCC | -65 to -60 °C
168 | CC[N+](=O)[O-] | -89.5 to -89 °C
169 | Cc1cccc(C)c1[N+](=O)[O-] | 15 to 16 °C
170 | ClCc1ccccc1Cl | -17 to -13 °C
